Patent US20160113282A1 (HONBU SANKEI CO., LTD., priority 2013, published 2016)
Where two headings read alike, the source gives them in different places.

How the values were obtained:
[1] = tested on: Vero cells; assay: Impairment in colony formation capability; type: cell-based, African green monkey; details: phosphoric acid buffer (FIG. 7)
[2] = tested on: MDCK cells; assay: Impairment in colony formation capability; type: cell-based, canine; details: phosphoric acid buffer (FIG. 7)
[3] = tested on: influenza virus Type A Aichi strain A/Aichi/68 (H3N2); type: cell-based; details: 10 ppm; for ratio of the amount of residual infectious viruses: 30 minutes at 25° C., PBS = 1.00
[4] = tested on: feline calicivirus F4 strain; assay: Inactivation of feline caliciviruses (Example 10), plaque assay on CRFK cells; type: cell-based; details: 30 minutes at 25° C. (FIG. 10)
[5] = tested on: HEp-2 cells; assay: Impairment in colony formation capability; type: cell-based, human; details: phosphoric acid buffer (FIG. 7)
[6] = tested on: HEp-2 cells; details: human, 20 min
[7] = tested on: feline caliciviruses; assay: Sterilizing solution wrung from wet wipe, feline caliciviruses (Example 11)
[8] = tested on: feline calicivirus F4 strain; assay: In vitro test in test tube, feline caliciviruses (Example 11); type: cell-based

With `OCl` [Sodium hypochlorite aqueous solution, sodium hypochlorite] the “concentration at which impairment in colony formation was observed” value (shortened to “concentration at which impairment”) [1] was ≤ 5 ppm, the “concentration at which impairment” value [2] was ≤ 5 ppm and the “viruses inactivated to (detectable limit)” value ([3]; each pH from pH 5.5 to pH 8.8) was < 10^−5. The “ratio of the amount of residual infectious viruses” value ([3]; pH 5.5) was <0.0002, the “ratio of the amount of residual infectious viruses” value ([3]; pH 6.5) was <0.0002 and the “ratio of the amount of residual infectious viruses” value ([3]; pH 7.5) was <0.0002. For the same molecule, the “ratio of the amount of residual infectious viruses” value ([3]; pH 8.5) was <0.0002, the “effect of pH on inactivation of feline caliciviruses” value ([4]; pH 4.5 and pH 7.5) was “greatly affected by pH” and the “feline caliciviruses inactivation capability” value ([4]; pH of 4.5) was “lost”. For the same molecule, the “concentration at which impairment” value [5] was ≤ 5 ppm, the “concentration that generated dead cells” value [6] was “about 0.5 ppm” and the “number of infectious viruses” value ([7]; solution from wet wipe, 500 ppm (formulation 60 times), contact 1 min) was 3.5 ± 2.1 CPU/mL. For the same molecule, the “number of infectious viruses” value ([7]; solution from wet wipe, 500 ppm (formulation 60 times), contact 5 min) was 2.9 ± 2.7 CPU/mL, the “number of infectious viruses” value ([7]; solution from wet wipe, 500 ppm (formulation 60 times), contact 10 min) was <100 CPU/mL and the “number of infectious viruses” value ([7]; solution from wet wipe, 750 ppm (formulation 40 times), contact 1 min) was <100 CPU/mL. For the same molecule, the “number of infectious viruses” value ([7]; solution from wet wipe, 750 ppm (formulation 40 times), contact 5 min) was <100 CPU/mL, the “number of infectious viruses” value ([7]; solution from wet wipe, 750 ppm (formulation 40 times), contact 10 min) was <100 CPU/mL and the “number of infectious viruses” value ([7]; solution from wet wipe, 1000 ppm (formulation 30 times), contact 1 min) was <100 CPU/mL. The “number of infectious viruses” value ([7]; solution from wet wipe, 1000 ppm (formulation 30 times), contact 5 min) was <100 CPU/mL, the “number of infectious viruses” value ([7]; solution from wet wipe, 1000 ppm (formulation 30 times), contact 10 min) was <100 CPU/mL and the “number of infectious viruses” value ([7]; solution from wet wipe, 3000 ppm (formulation 10 times), contact 1 min) was <100 CPU/mL. For the same molecule, the “number of infectious viruses” value ([7]; solution from wet wipe, 3000 ppm (formulation 10 times), contact 5 min) was <100 CPU/mL, the “number of infectious viruses” value ([7]; solution from wet wipe, 3000 ppm (formulation 10 times), contact 10 min) was <100 CPU/mL and the “number of infectious viruses” value ([7]; wet wipe stored Day 0, 1000 ppm, contact 1 min) was <100. The “number of infectious viruses” value ([7]; wet wipe stored Day 0, 1000 ppm, contact 5 min) was <100, the “number of infectious viruses” value ([7]; wet wipe stored Day 0, 1000 ppm, contact 10 min) was <100 and the “number of infectious viruses” value ([7]; wet wipe stored Day 0, 3000 ppm, contact 1 min) was <100. The “number of infectious viruses” value ([7]; wet wipe stored Day 0, 3000 ppm, contact 5 min) was <100, the “number of infectious viruses” value ([7]; wet wipe stored Day 0, 3000 ppm, contact 10 min) was <100 and the “number of infectious viruses” value ([7]; wet wipe stored Day 3, 1000 ppm, contact 1 min) was “Many”. The “number of infectious viruses” value ([7]; wet wipe stored Day 3, 1000 ppm, contact 5 min) was “Many”, the “number of infectious viruses” value ([7]; wet wipe stored Day 3, 1000 ppm, contact 10 min) was “Many” and the “number of infectious viruses” value ([7]; wet wipe stored Day 3, 3000 ppm, contact 1 min) was “Many”. The “number of infectious viruses” value ([7]; wet wipe stored Day 3, 3000 ppm, contact 5 min) was “Many”, the “number of infectious viruses” value ([7]; wet wipe stored Day 3, 3000 ppm, contact 10 min) was “Many” and the “number of infectious viruses” value ([8]; pH 5.5, 25 ppm, contact 0 min) was 5.4 ± 1.7 log CPU/mL. The “number of infectious viruses” value ([8]; pH 5.5, 50 ppm, contact 0 min) was 5.4 ± 1.7 log CPU/mL, the “number of infectious viruses” value ([8]; pH 5.5, 100 ppm, contact 0 min) was 5.4 ± 1.7 log CPU/mL and the “number of infectious viruses” value ([8]; pH 5.5, 200 ppm, contact 0 min) was 5.4 ± 1.7 log CPU/mL. For the same molecule, the “number of infectious viruses” value ([8]; pH 5.5, 200 ppm, contact 5 min) was 3.7 ± 1.8 log CPU/mL, the “number of infectious viruses” value ([8]; pH 5.5, 200 ppm, contact 10 min) was 2.6 ± 1.8 log CPU/mL and the “number of infectious viruses” value ([8]; pH 5.5, 400 ppm, contact 0 min) was 5.4 ± 1.7 log CPU/mL. For the same molecule, the “number of infectious viruses” value ([8]; pH 5.5, 400 ppm, contact 1 min) was <2.0 log CPU/mL, the “number of infectious viruses” value ([8]; pH 5.5, 400 ppm, contact 5 min) was <2.0 log CPU/mL and the “number of infectious viruses” value ([8]; pH 5.5, 400 ppm, contact 10 min) was <2.0 log CPU/mL. For the same molecule, the “number of infectious viruses” value ([8]; pH 6.5, 25 ppm, contact 0 min) was 6.1 ± 2.1 log CPU/mL, the “number of infectious viruses” value ([8]; pH 6.5, 50 ppm, contact 0 min) was 6.1 ± 2.1 log CPU/mL and the “number of infectious viruses” value ([8]; pH 6.5, 100 ppm, contact 0 min) was 6.1 ± 2.1 log CPU/mL. For the same molecule, the “number of infectious viruses” value ([8]; pH 6.5, 200 ppm, contact 0 min) was 6.1 ± 2.1 log CPU/mL, the “number of infectious viruses” value ([8]; pH 6.5, 200 ppm, contact 5 min) was 3.3 ± 2.9 log CPU/mL and the “number of infectious viruses” value ([8]; pH 6.5, 200 ppm, contact 10 min) was <2.0 log CPU/mL. For the same molecule, the “number of infectious viruses” value ([8]; pH 6.5, 400 ppm, contact 0 min) was 6.1 ± 2.1 log CPU/mL, the “number of infectious viruses” value ([8]; pH 6.5, 400 ppm, contact 1 min) was <2.0 log CPU/mL and the “number of infectious viruses” value ([8]; pH 6.5, 400 ppm, contact 5 min) was <2.0 log CPU/mL. For the same molecule, the “number of infectious viruses” value ([8]; pH 6.5, 400 ppm, contact 10 min) was <2.0 log CPU/mL, the “number of infectious viruses” value ([8]; pH 7.5, 25 ppm, contact 0 min) was 5.2 ± 2.6 log CPU/mL and the “number of infectious viruses” value ([8]; pH 7.5, 50 ppm, contact 0 min) was 5.2 ± 2.6 log CPU/mL. For the same molecule, the “number of infectious viruses” value ([8]; pH 7.5, 50 ppm, contact 5 min) was 4.4 ± 1.8 log CPU/mL, the “number of infectious viruses” value ([8]; pH 7.5, 50 ppm, contact 10 min) was <2.0 log CPU/mL and the “number of infectious viruses” value ([8]; pH 7.5, 100 ppm, contact 0 min) was 5.2 ± 2.6 log CPU/mL. The “number of infectious viruses” value ([8]; pH 7.5, 100 ppm, contact 5 min) was 3.4 ± 1.8 log CPU/mL, the “number of infectious viruses” value ([8]; pH 7.5, 100 ppm, contact 10 min) was <2.0 log CPU/mL and the “number of infectious viruses” value ([8]; pH 7.5, 200 ppm, contact 0 min) was 5.2 ± 2.6 log CPU/mL. For the same molecule, the “number of infectious viruses” value ([8]; pH 7.5, 200 ppm, contact 1 min) was 2.5 ± 1.8 log CPU/mL, the “number of infectious viruses” value ([8]; pH 7.5, 200 ppm, contact 5 min) was <2.0 log CPU/mL and the “number of infectious viruses” value ([8]; pH 7.5, 200 ppm, contact 10 min) was <2.0 log CPU/mL. For the same molecule, the “number of infectious viruses” value ([8]; pH 7.5, 400 ppm, contact 0 min) was 5.2 ± 2.6 log CPU/mL.
